Results taken from ChEMBL document CHEMBL5506058, “Discovery of Quinazoline and Quinoline-Based Small Molecules as Utrophin Upregulators via AhR Antagonism for the Treatment of Duchenne Muscular Dystrophy” (J Med Chem, 2024).
Calls of active or inactive are those of the source. The calls are words filed in the database; no cut-off is given here.

Experiments:
[1] = Upregulation of utrophin expression in mouse C2C12 cells assessed as fold increase at 800 nM measured after 72 hrs by In-cell ELISA method; type: functional
C2C12 [2] = assay: Cytotoxicity against mouse C2C12 cells assessed as reduction in cell viability at 0.78 to 100 uM measured after 24 hrs by MTT assay; type: toxicity, cell-based; details: c2c12, 24 h, dose 0.78-100 µM
C2C12 [3] = assay: Upregulation of utrophin mRNA expression in mouse C2C12 cells at 800 nM measured after 72 hrs by qRT-PCR analysis; type: functional, cell-based
C2C12 [4] = assay: Upregulation of utrophin mRNA expression in mouse C2C12 level measured after 72 hrs by qRT-PCR analysis; type: functional, cell-based; details: dose 200-800 nM
[5] = Upregulation of utrophin protein expression in mouse C2C12 cells assessed as fold increase at 800 nM measured after 72 hrs by Western blot analysis; type: functional
C2C12 [6] = assay: Upregulation of utrophin protein expression in mouse C2C12 level measured after 72 hrs by Westernblot analysis; type: functional, cell-based; details: dose 200-800 nM
[7] = Upregulation of utrophin mRNA expression in mouse C2C12 cells assessed as fold increase at 800 nM measured after 72 hrs by qRT-PCR analysis; type: functional

CC(C)(C)c1ccc(Nc2ncc3cc(S(C)(=O)=O)ccc3n2)cc1
fold change (FC) [1]: 1.01
Activity (C2C12 [2]): Toxic

CCS(=O)(=O)c1ccc2nc(NCc3cc(OC)cc(OC)c3)ccc2c1
fold change (FC) [1]: 1.42
Activity (C2C12 [2]): Toxic

CS(=O)(=O)c1ccc2nc(NCc3ccncc3)ccc2c1
fold change (FC) [1]: 1.42
Activity (C2C12 [2]): Toxic

CCS(=O)(=O)c1ccc2nc(Nc3cc(OC)cc(OC)c3)ncc2c1
fold change (FC) [1]: 1.52
Activity (C2C12 [2]): Toxic

CS(=O)(=O)c1ccc2nc(Nc3ccc4c(c3)OCO4)ccc2c1
fold change (FC) [1]: 1
Activity (C2C12 [2]): Toxic

COc1ccc(CNc2ccc3cc(S(C)(=O)=O)ccc3n2)cc1
fold change (FC) [1]: 0.94
Activity (C2C12 [2]): Toxic

CS(=O)(=O)c1ccc2nc(Nc3ccc(C(F)(F)F)cc3)ncc2c1
fold change (FC) [1]: 1.06
Activity (C2C12 [2]): Toxic

COc1ccc(CNc2ncc3cc(S(C)(=O)=O)ccc3n2)cc1
fold change (FC) [1]: 1.11
Activity (C2C12 [2]): Non-Toxic

CCS(=O)(=O)c1ccc2nc(Nc3ccc(C(C)(C)C)cc3)ncc2c1
fold change (FC) [1]: 1.13
Activity (C2C12 [2]): Toxic

CC(C)(C)c1ccc(CNc2ccc3cc(S(C)(=O)=O)ccc3n2)cc1
fold change (FC) [1]: 0.99
Activity (C2C12 [2]): Toxic

CS(=O)(=O)c1ccc2nc(NCc3ccc(O)cc3)ncc2c1
fold change (FC) [1]: 1.09
Activity (C2C12 [2]): Toxic

CCS(=O)(=O)c1ccc2nc(NCc3ccc(C(C)(C)C)cc3)ccc2c1
fold change (FC) [1]: 0.9
Activity (C2C12 [2]): Toxic

CS(=O)(=O)c1ccc2nc(NCc3ccc4c(c3)OCO4)ncc2c1
fold change (FC) [1]: 0.92
Activity (C2C12 [2]): Toxic

CCS(=O)(=O)c1ccc2nc(NCc3ccc(O)cc3)ccc2c1
fold change (FC) [1]: 0.98
Activity (C2C12 [2]): Toxic

CCS(=O)(=O)c1ccc2nc(NCCc3cc4ccccc4[nH]3)ncc2c1
fold change (FC) [1]: 1.73
Activity (C2C12 [2]): Toxic

CCS(=O)(=O)c1ccc2nc(Nc3ccc(C(F)(F)F)cc3)ccc2c1
fold change (FC) [1]: 0.94
Activity (C2C12 [2]): Toxic

COc1ccc(Nc2ncc3cc(S(C)(=O)=O)ccc3n2)cc1
fold change (FC) [1]: 1.05
Activity (C2C12 [2]): Toxic

CS(=O)(=O)c1ccc2cnc(NCc3ccc(C(F)(F)F)cc3)nc2c1
fold change (FC) [1]: 1.8
Activity (C2C12 [2]): Toxic

CS(=O)(=O)c1ccc2nc(NCc3ccncc3)ncc2c1
Activity (C2C12 [3]): Active
fold change (FC) [1]: 1.88
Activity (C2C12 [2]): Toxic

CS(=O)(=O)c1ccc2nc(NCc3ccc4c(c3)OCO4)ccc2c1
fold change (FC) [1]: 0.97
Activity (C2C12 [2]): Toxic

CCS(=O)(=O)c1ccc2nc(NCCc3cc4ccccc4[nH]3)ccc2c1
fold change (FC) [1]: 1.3
Activity (C2C12 [2]): Toxic

CCS(=O)(=O)c1ccc2cnc(NCc3ccc(F)cc3)nc2c1
fold change (FC) [1]: 0.67
Activity (C2C12 [2]): Toxic

CS(=O)(=O)c1ccc2nc(Nc3ccc(F)cc3)ncc2c1
fold change (FC) [1]: 1.06
Activity (C2C12 [2]): Toxic

CS(=O)(=O)c1ccc2nc(NCc3ccc(O)cc3)ccc2c1
fold change (FC) [1]: 1.07
Activity (C2C12 [2]): Toxic

CCS(=O)(=O)c1ccc2nc(NCc3ccc(OC)cc3)ncc2c1
fold change (FC) [1]: 1.01
Activity (C2C12 [2]): Toxic

COc1cc(CNc2ccc3cc(S(C)(=O)=O)ccc3n2)cc(OC)c1
fold change (FC) [1]: 1.26
Activity (C2C12 [2]): Toxic

CS(=O)(=O)c1ccc2nc(NCCc3cc4ccccc4[nH]3)ncc2c1
fold change (FC) [1]: 1.81
Activity (C2C12 [2]): Toxic

CS(=O)(=O)c1ccc2nc(Nc3ccc(O)cc3)ccc2c1
fold change (FC) [1]: 1.03
Activity (C2C12 [2]): Toxic

CCS(=O)(=O)c1ccc2nc(NCc3ccc(C(F)(F)F)cc3)ccc2c1
fold change (FC) [1]: 1.16
Activity (C2C12 [2]): Toxic

CS(=O)(=O)c1ccc2nc(NCc3ccc(C(F)(F)F)cc3)ccc2c1
fold change (FC) [1]: 1.27
Activity (C2C12 [2]): Toxic

COc1cc(Nc2ccc3cc(S(C)(=O)=O)ccc3n2)cc(OC)c1
fold change (FC) [1]: 1.32
Activity (C2C12 [2]): Toxic

CCS(=O)(=O)c1ccc2nc(NCc3ccc(F)cc3)ncc2c1
fold change (FC) [1]: 1.4
Activity (C2C12 [2]): Toxic

CCS(=O)(=O)c1ccc2nc(Nc3ccc4c(c3)OCO4)ncc2c1
fold change (FC) [1]: 0.6
Activity (C2C12 [2]): Toxic

CCS(=O)(=O)c1ccc2nc(NCc3ccc(O)cc3)ncc2c1
fold change (FC) [1]: 1.12
Activity (C2C12 [2]): Toxic

CCS(=O)(=O)c1ccc2nc(NCc3ccc4c(c3)OCO4)ncc2c1
fold change (FC) [1]: 0.91
Activity (C2C12 [2]): Toxic

CCS(=O)(=O)c1ccc2cnc(NCc3ccc(C(F)(F)F)cc3)nc2c1
fold change (FC) [1]: 1.51
Activity (C2C12 [2]): Toxic

COc1cc(CNc2ncc3cc(S(C)(=O)=O)ccc3n2)cc(OC)c1
fold change (FC) [1]: 1.67
Activity (C2C12 [2]): Toxic

CS(=O)(=O)c1ccc2nc(NCc3ccc(C(F)(F)F)cc3)ncc2c1
fold change (FC) [1]: 1.27
Activity (C2C12 [2]): Toxic

CCS(=O)(=O)c1ccc2nc(NCc3ccncc3)ccc2c1
fold change (FC) [1]: 1.73
Activity (C2C12 [2]): Toxic

CCS(=O)(=O)c1ccc2nc(Nc3cc(OC)cc(OC)c3)ccc2c1
fold change (FC) [1]: 1.17
Activity (C2C12 [2]): Toxic

CS(=O)(=O)c1ccc2nc(Nc3cc(O)cc(O)c3)ccc2c1
fold change (FC) [1]: 1.08
Activity (C2C12 [2]): Toxic

CCS(=O)(=O)c1ccc2nc(NCc3ccncc3)ncc2c1
fold change (FC) [1]: 1.77
Activity (C2C12 [2]): Toxic

CCS(=O)(=O)c1ccc2nc(Nc3ccc(OC)cc3)ncc2c1
fold change (FC) [1]: 1.09
Activity (C2C12 [2]): Toxic

COc1cc(Nc2ncc3cc(S(C)(=O)=O)ccc3n2)cc(OC)c1
fold change (FC) [1]: 1.6
Activity (C2C12 [2]): Toxic

CS(=O)(=O)c1ccc2nc(Nc3ccc(C(F)(F)F)cc3)ccc2c1
fold change (FC) [1]: 0.93
Activity (C2C12 [2]): Toxic

CCS(=O)(=O)c1ccc2nc(Nc3ccc(F)cc3)ncc2c1
fold change (FC) [1]: 1.23
Activity (C2C12 [2]): Toxic

CC(C)(C)c1ccc(Nc2ccc3cc(S(C)(=O)=O)ccc3n2)cc1
fold change (FC) [1]: 0.61
Activity (C2C12 [2]): Toxic

CCS(=O)(=O)c1ccc2nc(Nc3ccc(O)cc3)ncc2c1
fold change (FC) [1]: 1.08
Activity (C2C12 [2]): Toxic

CCS(=O)(=O)c1ccc2nc(Nc3ccc(C(C)(C)C)cc3)ccc2c1
fold change (FC) [1]: 0.93
Activity (C2C12 [2]): Toxic

CCS(=O)(=O)c1ccc2nc(Nc3ccc(F)cc3)ccc2c1
fold change (FC) [1]: 0.98
Activity (C2C12 [2]): Toxic

CCS(=O)(=O)c1ccc2nc(Nc3ccc(O)cc3)ccc2c1
fold change (FC) [1]: 0.93
Activity (C2C12 [2]): Toxic

CS(=O)(=O)c1ccc2nc(NCCc3cc4ccccc4[nH]3)ccc2c1
fold change (FC) [1]: 1.78
Activity (C2C12 [2]): Toxic

CS(=O)(=O)c1ccc2cnc(NCc3ccc(F)cc3)nc2c1
fold change (FC) [1]: 0.95
Activity (C2C12 [2]): Toxic

CCS(=O)(=O)c1ccc2nc(NCc3ccc(F)cc3)ccc2c1
fold change (FC) [1]: 1.2
Activity (C2C12 [2]): Toxic

CCS(=O)(=O)c1ccc2nc(Nc3ccc(C(F)(F)F)cc3)ncc2c1
fold change (FC) [1]: 1.25
Activity (C2C12 [2]): Toxic

CCS(=O)(=O)c1ccc2nc(NCc3ccc4c(c3)OCO4)ccc2c1
fold change (FC) [1]: 0.98
Activity (C2C12 [2]): Toxic

CS(=O)(=O)c1ccc2nc(Nc3ccc4c(c3)OCO4)ncc2c1
fold change (FC) [1]: 0.92
Activity (C2C12 [2]): Toxic

COc1ccc(Nc2ccc3cc(S(C)(=O)=O)ccc3n2)cc1
fold change (FC) [1]: 0.87
Activity (C2C12 [2]): Toxic

CS(=O)(=O)c1ccc2nc(NCc3ccc(F)cc3)ccc2c1
fold change (FC) [1]: 1
Activity (C2C12 [2]): Toxic

CC(C)(C)c1ccc(CNc2ncc3cc(S(C)(=O)=O)ccc3n2)cc1
fold change (FC) [1]: 1.19
Activity (C2C12 [2]): Toxic

CCS(=O)(=O)c1ccc2nc(Nc3cc(O)cc(O)c3)ccc2c1
fold change (FC) [1]: 1.02
Activity (C2C12 [2]): Toxic

CS(=O)(=O)c1ccc2nc(Nc3ccc(O)cc3)ncc2c1
fold change (FC) [1]: 1.06
Activity (C2C12 [2]): Toxic

CCS(=O)(=O)c1ccc2nc(Nc3ccc(OC)cc3)ccc2c1
fold change (FC) [1]: 1.09
Activity (C2C12 [2]): Toxic

CCS(=O)(=O)c1ccc2nc(NCc3ccc(OC)cc3)ccc2c1
fold change (FC) [1]: 0.89
Activity (C2C12 [2]): Toxic

CCS(=O)(=O)c1ccc2nc(NCc3ccc(C(F)(F)F)cc3)ncc2c1
Activity (C2C12 [4]): Dose-Dependent Effect
Activity (C2C12 [3]): Active
fold change (FC) [5]: 2.51
Activity (C2C12 [6]): Dose-Dependent Effect
fold change (FC) [7]: 1.95
fold change (FC) [1]: 1.93
Activity (C2C12 [2]): Toxic

CCS(=O)(=O)c1ccc2nc(Nc3ccc4c(c3)OCO4)ccc2c1
fold change (FC) [1]: 0.98
Activity (C2C12 [2]): Toxic

CCS(=O)(=O)c1ccc2nc(NCc3cc(OC)cc(OC)c3)ncc2c1
fold change (FC) [1]: 1.62
Activity (C2C12 [2]): Toxic

CCS(=O)(=O)c1ccc2nc(NCc3ccc(C(C)(C)C)cc3)ncc2c1
fold change (FC) [1]: 1.07
Activity (C2C12 [2]): Toxic

CS(=O)(=O)c1ccc2nc(Nc3ccc(F)cc3)ccc2c1
fold change (FC) [1]: 0.93
Activity (C2C12 [2]): Toxic
